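Exposure lasted 48 hours, with cells grown in 96-well plates and compounds tested at five concentrations. GI50: concentration for 50% inhibition of growth. TGI: concentration producing complete growth inhibition.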
What was measured:
Test in all cases: NCI tumour cell line growth inhibition, 48 h
[1] = test system: SK-OV-3 ovarian
[2] = test system: HCT-116 colon
[3] = test system: HT29 colon
[4] = test system: HCT-15 colon
[5] = test system: EKVX NSCLC
[6] = test system: SF-539 CNS
[7] = test system: UO-31 renal
[8] = test system: U251 CNS
[9] = test system: CAKI-1 renal
[10] = test system: SK-MEL-28 melanoma

Row | Compound | GI50 [1] [µM] | TGI [1] [µM] | GI50 [2] [µM] | TGI [2] [µM] | GI50 [3] [µM] | TGI [3] [µM] | GI50 [4] [µM] | TGI [4] [µM] | GI50 [5] [µM] | TGI [5] [µM] | GI50 [6] [µM] | TGI [6] [µM] | GI50 [7] [µM] | TGI [7] [µM] | GI50 [8] [µM] | TGI [8] [µM] | GI50 [9] [µM] | TGI [9] [µM] | GI50 [10] [µM] | TGI [10] [µM]
1 | CSc1nc2nc(-c3ccccc3)c(C)c-2c2n1C(C)C(=O)N2 (stereo not given) | 8.43 | 59.1 | 37.4 | > 100 | 33.7 | > 100 | 51.2 | > 100 | 65.7 | > 100 | 86.7 | > 100 | 18.3 | > 100 | 68.2 | > 100 | 53.6 | > 100 | 43.4 | > 100
2 | CCOC(=O)/C(=C/c1ccccn1)C(=O)c1ccccc1 | – | 36.7 | – | 27.3 | – | 30.4 | – | 29.3 | – | 42.8 | – | 31 | – | 30 | – | 27.4 | – | 27.9 | – | 27.3
3 | COc1ccccc1Oc1nccc(-c2c(-c3ccc(F)cc3)ncn2C2CCNCC2)n1 | > 25 | > 25 | 19.6 | > 25 | 8.72 | > 25 | > 25 | > 25 | > 25 | > 25 | > 25 | > 25 | 6.86 | > 25 | > 24 | > 25 | > 23.2 | > 25 | > 24.1 | > 25
4 | O=C(Nc1ccc(OC(F)(F)Cl)cc1)c1cnc(N2CC[C@@H](O)C2)c(-c2ccn[nH]2)c1 | 20.5 | 44.9 | 10.8 | 23.9 | 3.12 | 12.1 | 7.61 | 24.2 | 8.63 | 28.7 | 13.6 | 29.1 | 11.9 | 31 | 11.8 | 26.6 | 19.4 | 63 | 11.8 | 24.9
5 | COc1cc(/C=C/c2csnn2)cc(OC)c1OC | – | > 100 | – | > 100 | – | > 100 | – | > 100 | – | > 100 | – | > 100 | – | > 100 | – | > 100 | – | > 100 | – | > 100
6 | O=C(O)CN(CCN(CC(=O)O)CC(=O)O)CC(=O)O.[Mn+2] | > 100 | > 100 | > 100 | > 100 | > 100 | > 100 | > 100 | > 100 | > 100 | > 100 | > 100 | > 100 | > 100 | > 100 | > 100 | > 100 | > 100 | > 100 | > 100 | > 100
7 | COc1ccc(/C=C2\C(=O)N(NC(C)=O)c3ccccc32)cc1 | – | > 100 | – | > 100 | – | > 100 | – | > 100 | – | > 100 | – | > 100 | – | > 100 | – | > 100 | – | > 100 | – | > 100
8 | CCOC(=O)C1(C)CCC(C(C(=O)O)C(=O)O)CC1=O (stereo not given) | – | > 100 | – | > 100 | – | > 100 | – | > 100 | – | > 100 | – | > 100 | – | > 100 | – | > 100 | – | > 100 | – | > 100
9 | CC1NOC(=O)C1N=Nc1ccc(Cl)cc1Cl (stereo not given) | – | 77.2 | – | 52.5 | – | > 100 | – | 38.3 | – | 73.4 | – | > 100 | – | 51 | – | 38.5 | – | 60.9 | – | > 100
10 | CCCCCC/C=C\CCCCCCCCC(=O)c1cccc(OC)c1OC | – | > 100 | – | > 100 | – | > 100 | – | > 100 | – | > 100 | – | > 100 | – | > 100 | – | > 100 | – | > 100 | – | > 100
11 | Cc1noc(NC(=O)Nc2ccccc2F)c1C#N | – | > 100 | – | > 43 | – | > 37.7 | – | > 100 | – | 25.1 | – | > 100 | – | 4.42 | – | > 44.6 | – | > 100 | – | > 100
12 | NC(N)=NCCCC(NCc1c2ccccc2nc2ccccc12)C(=O)O (stereo not given) | – | > 100 | – | > 100 | – | > 66.4 | – | > 100 | – | > 100 | – | > 100 | – | > 100 | – | > 100 | – | > 100 | – | > 100
13 | CN1CCN(c2c(F)cc(NC3=C(Cl)C(=O)c4ncccc4C3=O)cc2F)CC1 | 25.2 | 72 | 1.78 | 3.35 | 4.67 | 22.5 | 1.82 | 4.09 | 14.9 | 33.4 | 15.7 | 29.1 | 1.52 | 2.95 | 15 | 31.7 | 1.45 | 2.77 | 6.47 | 19

From PubChem BioAssay (NCI)
